Source: US6291449A, “Use of 11-phenyl-dibenzazepine compounds to treat diarrhea or scours” (Children's Medical Center Corporation, priority 1998, dated 2001)
Like-named read-outs stand apart in the source and are kept apart here.

How the values were obtained:
[1] = system: T84 cells; assay: Electrogenic Cl- secretion (short circuit current) in intact T84 monolayers; format: cell-based, human; design: inhibition of Cl- secretory response to carbachol (Isc): dose or concentration left out as unconfirmed; details: for inhibition of chloride secretion: T84 cells
[2] = system: basolateral K+ channels; assay: K+ transport/conductance of basolateral membrane in apically permeabilized T84 monolayers; details: for increases in Isc and G in absence of K+: Na+ as sole permeant cation, 135 mM gradient; for effect on K+ transport (Isc and G): forskolin 10 μM, 135 mM K+ gradient; for duration of agonist-induced changes in Isc: permeabilized T84 monolayers; for activation of currents at positive transepithelial voltages: basolaterally directed K+ gradient
[3] = system: rabbit colonic mucosa; assay: Ussing chamber studies using rabbit colonic mucosa; design: species or system rabbit (New Zealand)
[4] = system: apical membrane Cl- channels; assay: Cl- conductance of the apical plasma membrane in basolaterally permeabilized T84 monolayers; format: cell-based, human
[5] = system: basolateral K+ channels
[6] = system: basolateral K+ channel; assay: 86Rb efflux from T84 monolayers (K+ channel activity); format: cell-based, human
[7] = target: T1, basolateral NaK2Cl cotransporters (Homo sapiens, UniProt P55011); assay: 86Rb uptake in T84 monolayers (bumetanide-sensitive NaK2Cl cotransport); format: cell-based
T1 sequence (P55011 1-1212): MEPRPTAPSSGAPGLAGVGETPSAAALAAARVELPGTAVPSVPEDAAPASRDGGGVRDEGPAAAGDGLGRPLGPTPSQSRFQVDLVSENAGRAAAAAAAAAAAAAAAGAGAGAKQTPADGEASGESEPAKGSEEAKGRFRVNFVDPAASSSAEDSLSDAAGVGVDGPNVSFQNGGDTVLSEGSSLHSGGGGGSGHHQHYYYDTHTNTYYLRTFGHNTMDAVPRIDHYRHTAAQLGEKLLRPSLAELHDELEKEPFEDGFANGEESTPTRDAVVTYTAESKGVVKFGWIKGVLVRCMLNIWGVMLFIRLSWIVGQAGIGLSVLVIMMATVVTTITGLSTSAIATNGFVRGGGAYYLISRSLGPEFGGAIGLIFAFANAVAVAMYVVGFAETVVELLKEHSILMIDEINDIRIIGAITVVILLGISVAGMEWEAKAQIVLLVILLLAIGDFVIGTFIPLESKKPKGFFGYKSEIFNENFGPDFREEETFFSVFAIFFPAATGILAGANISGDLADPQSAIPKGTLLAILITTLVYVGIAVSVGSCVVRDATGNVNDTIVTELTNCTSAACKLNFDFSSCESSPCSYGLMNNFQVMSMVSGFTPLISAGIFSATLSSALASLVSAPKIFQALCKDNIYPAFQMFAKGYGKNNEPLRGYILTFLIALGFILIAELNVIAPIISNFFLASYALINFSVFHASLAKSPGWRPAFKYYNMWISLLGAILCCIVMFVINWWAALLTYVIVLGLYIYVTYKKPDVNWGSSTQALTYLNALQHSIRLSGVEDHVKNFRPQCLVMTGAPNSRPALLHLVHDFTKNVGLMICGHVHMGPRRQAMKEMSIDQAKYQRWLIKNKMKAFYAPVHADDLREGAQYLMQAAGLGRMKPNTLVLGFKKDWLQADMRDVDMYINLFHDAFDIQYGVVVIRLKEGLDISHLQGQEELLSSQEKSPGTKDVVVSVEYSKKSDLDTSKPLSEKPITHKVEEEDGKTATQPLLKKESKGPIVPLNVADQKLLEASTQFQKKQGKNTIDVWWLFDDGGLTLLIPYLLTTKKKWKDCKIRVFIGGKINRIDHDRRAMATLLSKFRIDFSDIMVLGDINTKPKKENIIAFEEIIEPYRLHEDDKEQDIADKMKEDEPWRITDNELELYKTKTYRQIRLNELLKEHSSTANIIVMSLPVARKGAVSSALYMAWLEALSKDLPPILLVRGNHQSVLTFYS
Protocol: A group of control and CLT treated (33 μM, for 30 min) monolayers were treated with bumetanide (10 μM for 12 min).

[8] = system: intestinal fluid secretion induced by cholera toxin; design: species or system mouse (Balb/C); details: mouse, in vivo
[9] = system: apical membrane Cl- channels; assay: 125I efflux from T84 monolayers (apical Cl- channel activity)
[10] = carbachol (so in the source) stimulated, […]
[11] = T84 cells, vs cells not treated with clotrimazole
[12] = clotrimazole 33 μM, final 30 min of 90 min preincubation

Molecule: charybdotoxin
- inhibition of Cl- secretory response to VIP (Isc) [1]: minimal affects
- inhibition of Cl- secretory response to carbachol (Isc) [1, 10]: strongly inhibited
- effect on K+ transport induced by subsequent forskolin ([2]; charybdotoxin 100 nM): no detectable effect
- inhibition of carbachol-induced Ca++ IK ([2]; charybdotoxin 100 nM pretreatment): 50%

Molecule: C[C@@H]1[C@H](O)[C@@H](C)/C=C/C=C/C=C/C=C/C=C/C=C/C=C/[C@H](O[C@@H]2O[C@H](C)[C@@H](O)[C@H](N)[C@@H]2O)C[C@@H]2O[C@](O)(C[C@@H](O)C[C@@H](O)[C@H](O)CC[C@@H](O)C[C@@H](O)CC(=O)O[C@H]1C)C[C@H](O)[C@H]2C(=O)O [amphotericin B]
- increase in conductance on initial permeabilization ([2]; amphotericin B, apical): 49±19%

Molecule: C[N+](C)(C)CCOC(N)=O [carbachol]
- effect on Isc after forskolin ([3]; carbachol 100 μM added after forskolin): no firther effect
- increases in Isc and G in absence of K+ [2]: not detectable
- time to return of IscK and GK to baseline ([2]; after addition of carbachol): ≤ 5 min
- carbachol-induced IscK, carbachol added after forskolin ([2]; after forskolin): 180.7±15.7 μA/cm^2
- carbachol-induced IscK, carbachol added alone ([2]; carbachol alone): 111.7±7.4 μA/cm^2
- effect on K+ transport (Isc and G) [2]: increased K+ currents
- duration of agonist-induced changes in Isc [2]: short-lived

Molecule: C=C[C@@]1(C)CC(=O)[C@]2(O)[C@@]3(C)[C@@H](O)CCC(C)(C)[C@@H]3[C@H](O)[C@H](OC(C)=O)[C@@]2(C)O1 [forskolin]
- effect on Cl- conductance over baseline ([4]; forskolin 10 μM basolateral, no clotrimazole): increased Cl- conductances significantly over baseline
- reversal potential (I/V relations) [5]: -40 mV
- increases in Isc and G in absence of K+ [2]: not detectable
- activation of currents at positive transepithelial voltages [2]: activate macroscopic outwardly rectified (mucosal to serosal) currents
- effect on K+ transport (Isc and G) [2]: brisk increase in K+ transport
- duration of agonist-induced changes in Isc [2]: sustained

Molecule: Clc1ccccc1C(c1ccccc1)(c1ccccc1)n1ccnc1 [clotrimazole]
- apparent potency of inhibition, basolateral vs apical application [1]: greater when applied basolaterally than apically
- inhibition by basolateral application alone compared with both sides [1]: almost as effective as incubation on both sides
- inhibition of Cl- secretory response to VIP (Isc) [1]: inhibited
- inhibition of Cl- secretory response to carbachol (Isc) [1]: inhibited
- inhibition of Cl- secretory response to carbachol after pretreatment [1]: inhibited strongly
- inhibition of Cl- secretory response to ionomycin after pretreatment [1]: inhibited strongly
- inhibition of Cl- secretory response to thapsigargin after pretreatment [1]: inhibited strongly
- inhibition of cAMP and Ca++ elicited Cl- secretion [1]: most potent inhibitor tested
- inhibition of secretory response to 8Br-cAMP after pretreatment [1]: inhibited
- inhibition of secretory response to VIP after pretreatment [1]: inhibited
- inhibition of secretory response to forskolin after pretreatment [1]: inhibited
- inhibition of synergistic response to VIP plus carbachol [1]: found to parallel the inhibition of secretion promoted by Ca^++ agonists alone
- reversibility of inhibition of Cl- secretion [1]: 96±2%
- IC50 ([1]; Homo sapiens, T84, read-out: IC50, inhibition of secretory response to E. Coli heat-stabile toxin): 15 µM
- potentiation of Cl- secretory responses to either agonist ([1]; low doses (10^-7 or less)): 5-10%
- inhibition of Ca++ stimulated 86Rb efflux [6, 11]: significantly inhibited
- inhibition of baseline 86Rb efflux [6, 11]: significantly inhibited
- reduction of rate constant for VIP-stimulated 86Rb efflux ([6]; VIP 5 μM, clotrimazole 33 μM): 87%
- 86Rb loading of the cells [6, 12]: did not alter
- rate constant for VIP-stimulated 86Rb efflux ([6]; clotrimazole-treated (vs 0.0465 untreated), n=2 in triplicate): 0.0062 % uptake/minute
- rate constant for thapsigargin-stimulated 86Rb efflux ([6]; clotrimazole-treated (vs 0.048 untreated), n=2): 0.011 % uptake/minute
- inhibition of 86Rb efflux stimulated with thapsigargin ([6]; compared with VIP-stimulated efflux): inhibited to a similar degree
- inhibition at 33 µM ([7]; 0.5 h, read-out: reduction of total amount of 86Rb uptake): 53.6 ± 5.8%
- effect on fractional component of 86Rb uptake that was bumetanide-sensitive ([7]; clotrimazole 33 μM, bumetanide 10 μM): no effect
- effect on forskolin-stimulated Cl- conductances ([4]; symmetrical Cl- 142 mM): no detectable effect
- effect on thapsigargin-stimulated Cl- conductances ([4]; symmetrical Cl- 142 mM): no detectable effect
- inhibition of time course of forskolin induced Isc ([3]; clotrimazole 30 μM, forskolin 10 μM): inhibited strongly
- effect on intestinal secretion in the absence of cholera toxin [8]: no effect
- reduction of intestinal fluid secretion induced by cholera toxin [8]: 86%
- rate constant for 125I efflux ([9]; VIP-stimulated, clotrimazole-treated monolayers, n=2 in duplicate): 0.0637 % uptake/minute
- 125I loading of the cells [9, 12]: did not alter
- effect on time course of 125I efflux, VIP ([9]; monolayers treated with VIP): little or no effect
- inhibition of time course of K+ transport after carbachol [2]: significantly inhibited
- inhibition of time course of K+ transport after forskolin [2]: significantly inhibited

Molecule: CC(=O)N1CCN(c2ccc(OCC3COC(Cn4ccnc4)(c4ccc(Cl)cc4Cl)O3)cc2)CC1 (stereo not shown) [ketoconazole]
- inhibition of chloride secretion [1]: effective at inhibiting chloride secretion

Molecule: Clc1ccc(COC(Cn2ccnc2)c2ccc(Cl)cc2Cl)c(Cl)c1 (stereo not shown) [miconazole]
- inhibition of chloride secretion [1]: effective at inhibiting chloride secretion

Molecule: C/C=C(/C)C(=O)O[C@H]1C(C)=C2[C@H]([C@@H]1OC(=O)CCCCCCC)[C@@](C)(OC(C)=O)C[C@H](OC(=O)CCC)[C@@]1(O)[C@H]2OC(=O)[C@@]1(C)O [thapsigargin]
- reversal potential (I/V relations) [5]: -40 mV
- activation of currents at positive transepithelial voltages [2]: activate macroscopic outwardly rectified (mucosal to serosal) currents

Molecule: Clc1ccc(COC(Cn2ccnc2)c2ccc(Cl)cc2Cl)cc1 (stereo not shown) [econazole]
- inhibition of chloride secretion [1]: effective at inhibiting chloride secretion

Molecule: [Ba+2].[Cl-].[Cl-] [BaCl2]
- inhibition of Cl- secretory response to VIP (Isc) [1]: strongly inhibited
- inhibition of Cl- secretory response to carbachol (Isc) [1, 10]: no apparent affect
- effect on K+ transport induced by carbachol ([2]; carbachol 100 μM after forskolin, BaCl2 3 mM): no detectable effect
- inhibition of cAMP-sensitive IK ([2]; forskolin 10 μM elicited, BaCl2 3 mM basolateral): greater than 70%

Molecule: OC(c1ccccc1)(c1ccccc1)c1ccccc1Cl [2-chlorophenyl-bis-phenyl methanol]
- inhibition of chloride secretion [1]: effective at inhibiting chloride secretion
- inhibition of time course of K+ transport after carbachol ([2]; carbachol 100 μM (Ca++ agonist)): Nearly identical results
- inhibition of time course of K+ transport after forskolin ([2]; forskolin 10 μM (cAMP agonist)): Nearly identical results
